Results from PMC9958325 (Nature Communications, 2023).
Several values for one entry are separate records, joined by “and”; a condition that tells them apart may be missing. Equal values may be shown once. Read-outs that look alike come from different tables or passages of the source.

Legend:
[1] = target: T1, human calpain (Homo sapiens, UniProt P07384); assay: Human calpain activity assay; format: biochemical; conditions: for %inhibition against humanCalpain: triplicate
T1 sequence (P07384 2-714): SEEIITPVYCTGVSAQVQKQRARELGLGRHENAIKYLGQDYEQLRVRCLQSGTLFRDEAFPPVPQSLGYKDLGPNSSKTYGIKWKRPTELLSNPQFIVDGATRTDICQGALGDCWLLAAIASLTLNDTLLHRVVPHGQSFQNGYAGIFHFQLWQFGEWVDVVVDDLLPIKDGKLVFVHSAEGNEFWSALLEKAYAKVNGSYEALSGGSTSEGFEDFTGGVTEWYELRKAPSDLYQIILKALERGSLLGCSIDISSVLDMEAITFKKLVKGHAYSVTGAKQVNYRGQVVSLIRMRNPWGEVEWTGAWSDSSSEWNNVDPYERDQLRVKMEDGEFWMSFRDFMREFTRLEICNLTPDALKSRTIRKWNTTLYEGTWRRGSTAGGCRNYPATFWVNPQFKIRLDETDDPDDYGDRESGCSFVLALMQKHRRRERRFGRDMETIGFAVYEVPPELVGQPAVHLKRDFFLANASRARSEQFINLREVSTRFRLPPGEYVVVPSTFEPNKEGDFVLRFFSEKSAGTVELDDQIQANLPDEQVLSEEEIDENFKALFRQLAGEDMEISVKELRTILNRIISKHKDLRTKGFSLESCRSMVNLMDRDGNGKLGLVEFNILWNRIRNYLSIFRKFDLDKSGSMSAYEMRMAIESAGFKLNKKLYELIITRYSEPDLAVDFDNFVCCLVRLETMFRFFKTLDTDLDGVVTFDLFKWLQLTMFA
T1 sequence (P04632 1-268 partner): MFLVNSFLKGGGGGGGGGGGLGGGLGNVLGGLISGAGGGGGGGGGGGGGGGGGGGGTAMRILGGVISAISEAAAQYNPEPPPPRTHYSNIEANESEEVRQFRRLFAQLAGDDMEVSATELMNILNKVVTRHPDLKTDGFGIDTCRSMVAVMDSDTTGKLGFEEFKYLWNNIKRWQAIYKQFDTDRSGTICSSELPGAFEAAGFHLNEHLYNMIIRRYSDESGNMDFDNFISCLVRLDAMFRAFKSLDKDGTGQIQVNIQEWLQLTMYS

[2] = test system: SARS-CoV-2^WK-521; assay: microbe, parasite or virus in culture; format: cell-based; parameters: EC95, individual assays / EC95, Average: unit: µM
[3] = test system: SARS-CoV-2 TKYX00012/ο BA.1; assay: microbe, parasite or virus in culture; format: cell-based
[4] = test system: SARS-CoV-2 TKYS02037/ο BA.2; assay: microbe, parasite or virus in culture; format: cell-based
[5] = test system: SARS-CoV-2 TKYTS14631/ο BA.5; assay: microbe, parasite or virus in culture; format: cell-based
[6] = test system: SARS-CoV-2 UT-NCD1757-1N/ο BA.2.75; assay: microbe, parasite or virus in culture; format: cell-based
[7] = test system: SARS-CoV-2^WK521 in HeLa-ACE2-TMPRSS2 cells; assay: Antiviral assay, HeLa-ACE2-TMPRSS2 cells, WK521; format: cell-based
[8] = test system: SARS-CoV-2^WK521 in A549-ACE2-TMPRSS2 cells; assay: Antiviral assay, A549-ACE2-TMPRSS2 cells, WK521; format: cell-based
[9] = test system: HepG2 cells
[10] = Pharmacokinetic study in PXB-mice (human liver-chimeric)

In the case of `CC(C)(C)[C@H](NC(=O)C(F)(F)F)C(=O)N1C[C@H]2[C@@H]([C@H]1C(=O)N[C@@H](C[C@@H]1CCNC1=O)C(=O)c1nc3c(F)cccc3s1)C2(C)C` [TKB245], the “Effect on human calpain (in words)” value [1] is reported as “neither of human cysteine enzymes, cathepsin L and calpain, were significantly affected”, the “%inhibition against humanCalpain” value ([1]; 0.000128 µM) is reported as 0% and the “%inhibition against humanCalpain” value ([1]; 0.00064 µM) is reported as 0%. For the same compound, the “%inhibition against humanCalpain” value ([1]; 0.0032 µM) was 0%, the “%inhibition against humanCalpain” value ([1]; 0.08 µM) was 0% and the “%inhibition against humanCalpain” value ([1]; 0.4 µM) was 0%. For the same compound, the “%inhibition against humanCalpain” value ([1]; 2 µM) was 9.6344% and 1.813%, the IC50 ([1]; 60 minute incubation, mean ± 1 S.D., n=3, read-out: IC50, human calpains) was greater than 2000 nM and the “EC95, Average” value [2] was 0.53. For the same compound, the “EC95, individual assays” value [2] was 0.59 and 0.09 and 0.55 and 0.89, the “SARS-CoV2 RNA VeroE6 cell-based assay EC95” value [2] was 530 nM and 530 ± 330 nM and the EC50 ([2]; read-out: EC50, Average) was 31.2 nM. For the same compound, the EC50 ([2]; read-out: EC50, VeroE6 + 2 µM CP100356) was 1 ± 1 nM, the EC50 ([2]; read-out: EC50, VeroE6 with CP100356, Average) was 1.56 nM and the EC50 ([2]; read-out: EC50, VeroE6 with CP100356, individual assays) was 1.4 nM and 2.37 nM and 0.9 nM. For the same compound, the EC50 ([2]; read-out: EC50, individual assays) was 40 nM and 20 nM and 50 nM and 15 nM, the EC50 ([2]; read-out: SARS-CoV2 RNA VeroE6 cell-based assay EC50) was 30 ± 20 nM and the EC50 ([3]; read-out: EC50 ο BA1, Average) was 13.7 nM. The EC50 ([3]; read-out: EC50 ο BA1, individual assays) was 10 nM and 7 nM and 24.2 nM, the EC50 ([4]; read-out: EC50 against TKYVS2037/ο BA.2) was 45 ± 14 nM and the EC50 ([4]; read-out: EC50 ο BA2, Average) was 45.3 nM. For the same compound, the EC50 ([4]; read-out: EC50 ο BA2, individual assays) was 60 nM and 32 nM and 44 nM, the EC50 ([5]; read-out: EC50 against TKYTS14631/ο BA.5) was 19 ± 5 nM and the EC50 ([5]; read-out: EC50 ο BA5, Average) was 18.8 nM. For the same compound, the EC50 ([5]; read-out: EC50 ο BA5, individual assays) was 16.1 nM and 24.7 nM and 15.6 nM, the EC50 ([6]; read-out: EC50 against UT-NCD1757-1N/ο BA.2.75) was 49 ± 5 nM and the EC50 ([6]; read-out: EC50 ο BA2.75, Average) was 49.3 nM. For the same compound, the EC50 ([6]; read-out: EC50 ο BA2.75, individual assays) was 55 nM and 44 nM, the EC50 ([7]; SARS-CoV-2^WK521, read-out: EC50, HeLa-ACE2-TMPRSS2) was 21 ± 8 nM and the EC50 ([7]; source data, listed as TKB0245, read-out: EC50, HeLa-AEC2-TMPRSS2, individual assays) was 14 nM and 30 nM and 20 nM. For the same compound, the EC50 ([7]; source data, read-out: EC50, HeLa-AEC2-TMPRSS2, Average) was 21.3 nM, the EC50 ([8]; SARS-CoV-2^WK521, read-out: EC50, A549-ACE2-TMPRSS2) was 2.7 ± 0.2 nM and the EC50 ([8]; source data, listed as TKB0245, read-out: EC50, A549-AEC2-TMPRSS2, individual assays) was 3 nM and 2.47 nM and 2.78 nM. The EC50 ([8]; source data, read-out: EC50, A549-AEC2-TMPRSS2, Average) was 2.75 nM, the CC50 [9] was greater than 200000 nM and the Cmax ([10]; N = 3 male PXB-mouse, 10 mg/kg p.o.) was 1,901¶ ng/mL. The T1/2 ([10]; N = 3 male PXB-mouse, 10 mg/kg, oral (p.o.) value for TKB245) was 3.82¶ h, the t1/2 ([10]; PXB-mice, 10 mg/kg i.v.) was 1.25 h and the Vdss ([10]; PXB-mice, 10 mg/kg i.v., mean ± S.E.) was 0.0302 ± 0.00381 L/kg. The AUC ([10]; PXB-mice, 10 mg/kg i.v., mean ± S.E., n=3) was 10700 ± 540 ng·h/mL.
